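Five compound concentrations were applied to cells in 96-well plates for 48 hours; endpoints were derived by simple linear interpolation of the resulting dose-response curve. The concentration for full growth arrest is given as TGI.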
Legend:
Assay in all cases: NCI tumour cell line growth inhibition, 48 h
[1] = system: A549 NSCLC
[2] = system: KM12 colon
[3] = system: TK-10 renal
[4] = system: 786-0 renal
[5] = system: OVCAR-5 ovarian
[6] = system: HS 578T breast
[7] = system: T-47D breast
[8] = system: HT29 colon
[9] = system: RXF 393 renal
[10] = system: SK-MEL-28 melanoma
[11] = system: SW-620 colon
[12] = system: OVCAR-3 ovarian
[13] = system: ACHN renal
[14] = system: UACC-62 melanoma
[15] = system: K-562 leukemia
[16] = system: MOLT-4 leukemia
[17] = system: SNB-19 CNS
[18] = system: U251 CNS
[19] = system: SK-OV-3 ovarian
[20] = system: HOP-92 NSCLC

With `CC(C)C(/C=C/c1ccc(Cl)cc1)=N\NC(=S)NN` the TGI [1] was > 100 µM, the TGI [2] was > 100 µM and the TGI [3] was > 100 µM. For the same molecule, the TGI [4] was > 100 µM, the TGI [5] was > 100 µM and the TGI [6] was 72.3 µM. For the same molecule, the TGI [7] was > 100 µM, the TGI [8] was > 100 µM and the TGI [9] was 96.6 µM. The TGI [10] was > 100 µM, the TGI [11] was > 100 µM and the TGI [12] was 78 µM. The TGI [13] was 65.6 µM, the TGI [14] was 30.5 µM and the TGI [15] was > 100 µM. For the same molecule, the TGI [16] was > 100 µM, the TGI [17] was > 100 µM and the TGI [18] was > 100 µM. For the same molecule, the TGI [19] was > 100 µM.
For `CCC(C)(C)c1ccc(Oc2cccc(C(=O)O)c2)cc1`, the TGI [1] was > 100 µM, the TGI [2] was > 100 µM and the TGI [3] was > 100 µM. For the same molecule, the TGI [4] was > 100 µM, the TGI [5] was > 100 µM and the TGI [6] was > 100 µM. For the same molecule, the TGI [7] was > 100 µM, the TGI [8] was > 100 µM and the TGI [9] was > 100 µM. For the same molecule, the TGI [10] was > 100 µM, the TGI [11] was > 100 µM and the TGI [12] was 70.1 µM. For the same molecule, the TGI [13] was > 100 µM, the TGI [14] was > 100 µM and the TGI [15] was > 100 µM. For the same molecule, the TGI [16] was 70.7 µM, the TGI [17] was > 100 µM and the TGI [18] was > 100 µM. The TGI [19] was > 100 µM.
`Clc1ccc(-c2cc(-c3nc4ccccc4[nH]3)no2)cc1` showed a TGI [1] of 36 µM, a TGI [2] of 40 µM and a TGI [3] of 40 µM. The TGI [4] was 59 µM, the TGI [5] was 40.8 µM and the TGI [6] was 79.7 µM. The TGI [7] was 37.7 µM, the TGI [8] was 35.3 µM and the TGI [10] was 40.5 µM. The TGI [11] was 46.5 µM, the TGI [12] was 35.7 µM and the TGI [13] was 36.9 µM. The TGI [14] was 28.3 µM, the TGI [15] was 50.2 µM and the TGI [20] was 66.7 µM. It also gave a TGI [16] of 47.9 µM, a TGI [17] of 36 µM and a TGI [19] of 35.8 µM.
For `CC1OC2OC3C(OCC(O)C3O)OC(=O)[C@]34CCC(C)(C)CC3C3=CCC5[C@@]6(C)C[C@H](O)[C@H](OC7OC(CO)C(O)C(O)C7OC7OC(COC(=O)CC(C)(O)CC(=O)OC1C(O)C2O)C(O)C(O)C7O)[C@@](C)(CO)C6CC[C@@]5(C)[C@]3(C)CC4` (stereo not given in full), the TGI [1] was 2.63 µM, the TGI [2] was 2.89 µM and the TGI [3] was 2.89 µM. For the same molecule, the TGI [4] was 2.4 µM, the TGI [5] was 2.85 µM and the TGI [6] was 3.54 µM. It also gave a TGI [7] of 7.23 µM, a TGI [8] of 3.18 µM and a TGI [10] of 2.79 µM. It also gave a TGI [11] of 2.44 µM, a TGI [12] of 3.15 µM and a TGI [13] of 2.52 µM. It also gave a TGI [14] of 2.81 µM, a TGI [20] of 2.94 µM and a TGI [17] of 3.18 µM. For the same molecule, the TGI [18] was 2.91 µM and the TGI [19] was 2.79 µM.
With `Clc1cccc(Cl)c1C1SCc2nc3ncccc3n21` (stereo not given) the TGI [1] was > 100 µM, the TGI [2] was > 100 µM and the TGI [3] was > 100 µM. The TGI [4] was > 100 µM, the TGI [5] was > 100 µM and the TGI [6] was > 100 µM. The TGI [7] was > 100 µM, the TGI [8] was > 100 µM and the TGI [9] was > 100 µM. For the same molecule, the TGI [10] was > 100 µM, the TGI [11] was > 100 µM and the TGI [12] was > 100 µM. The TGI [13] was > 100 µM, the TGI [14] was > 100 µM and the TGI [15] was > 100 µM. The TGI [16] was > 100 µM, the TGI [17] was > 100 µM and the TGI [18] was > 100 µM. The TGI [19] was > 100 µM.
`CC(=O)O[C@H]1C(=O)[C@@]2(C)[C@H]([C@H](OC(=O)c3ccncc3)[C@]3(O)C[C@H](OC(=O)[C@H](O)[C@@H](NC(=O)c4ccccc4)c4ccccc4)C(C)=C1C3(C)C)[C@]1(OC(C)=O)CO[C@@H]1C[C@@H]2O` was tested, and the TGI [1] was > 25 µM, the TGI [2] was > 25 µM and the TGI [3] was > 25 µM. The TGI [4] was > 25 µM, the TGI [5] was > 25 µM and the TGI [6] was > 21 µM. For the same molecule, the TGI [7] was > 25 µM, the TGI [8] was > 25 µM and the TGI [9] was > 23.3 µM. For the same molecule, the TGI [10] was > 25 µM, the TGI [11] was > 25 µM and the TGI [12] was > 18.5 µM. The TGI [13] was > 25 µM, the TGI [14] was > 25 µM and the TGI [15] was 5.36 µM. The TGI [16] was > 25 µM, the TGI [17] was > 25 µM and the TGI [18] was > 23.3 µM. For the same molecule, the TGI [19] was > 25 µM.
`COc1ccc(C2Oc3c(cccc3OC)C=C2[N+](=O)[O-])cc1` (stereo not given) was tested, and the TGI [1] was 26.4 µM, the TGI [2] was 4.52 µM and the TGI [3] was 7.5 µM. For the same molecule, the TGI [4] was 4.98 µM, the TGI [5] was 6.48 µM and the TGI [6] was 8.82 µM. For the same molecule, the TGI [7] was 27.7 µM, the TGI [8] was 4.59 µM and the TGI [9] was 2.7 µM. For the same molecule, the TGI [10] was 4.37 µM, the TGI [12] was 4.75 µM and the TGI [13] was 3.38 µM. For the same molecule, the TGI [14] was 5.72 µM, the TGI [15] was 16.3 µM and the TGI [16] was 6.86 µM. It also gave a TGI [17] of 16.6 µM, a TGI [18] of 3.76 µM and a TGI [19] of 15.3 µM.
For `CN(C)N1C(=O)CC2(CCN(CCCC(=O)c3ccc(F)cc3)CC2)C1=O`, the TGI [1] was > 100 µM, the TGI [2] was > 100 µM and the TGI [3] was > 100 µM. For the same molecule, the TGI [4] was > 100 µM, the TGI [5] was > 100 µM and the TGI [6] was > 100 µM. For the same molecule, the TGI [7] was > 100 µM, the TGI [8] was > 100 µM and the TGI [9] was > 100 µM. For the same molecule, the TGI [10] was > 100 µM, the TGI [11] was > 100 µM and the TGI [12] was > 100 µM. For the same molecule, the TGI [13] was > 100 µM, the TGI [14] was > 100 µM and the TGI [15] was > 100 µM. For the same molecule, the TGI [16] was > 100 µM, the TGI [17] was > 100 µM and the TGI [18] was > 100 µM. For the same molecule, the TGI [19] was > 100 µM.
In the case of `CC(C)=CCC/C(C)=C/CC/C(C)=C/CC/C(C=O)=C/CC/C(C)=C\CC/C(C)=C/CC/C(C)=C/CC/C(C)=C/CC1=CC(=O)C=CC1=O`, the TGI [1] is reported as > 100 µM, the TGI [2] is reported as > 100 µM and the TGI [3] is reported as > 100 µM. For the same molecule, the TGI [4] was > 100 µM, the TGI [5] was > 100 µM and the TGI [6] was > 100 µM. The TGI [7] was 69.4 µM, the TGI [10] was > 100 µM and the TGI [11] was > 100 µM. The TGI [12] was > 100 µM, the TGI [13] was > 100 µM and the TGI [14] was 53.1 µM. For the same molecule, the TGI [15] was > 100 µM, the TGI [20] was > 100 µM and the TGI [16] was > 100 µM. The TGI [17] was > 100 µM, the TGI [18] was > 100 µM and the TGI [19] was > 100 µM.
For `[O-][n+]1onc2c1-c1nonc1CC2`, the TGI [1] was > 100 µM, the TGI [2] was 81.5 µM and the TGI [3] was 56.4 µM. The TGI [4] was > 100 µM, the TGI [5] was > 100 µM and the TGI [6] was 66.8 µM. The TGI [7] was > 100 µM, the TGI [8] was > 100 µM and the TGI [9] was 69.5 µM. The TGI [10] was > 100 µM, the TGI [11] was > 100 µM and the TGI [12] was 43.8 µM. For the same molecule, the TGI [13] was 88.2 µM, the TGI [14] was > 100 µM and the TGI [15] was > 100 µM. The TGI [16] was > 100 µM, the TGI [17] was > 100 µM and the TGI [18] was > 100 µM. The TGI [19] was > 100 µM.
